Assays:
[1] = target: T1, Muscarinic acetylcholine receptor M4 (Homo sapiens) (UniProt P08173); assay: Inhibition of M4 receptor (unknown origin); settings: concentration not given here
T1 sequence (whole entry): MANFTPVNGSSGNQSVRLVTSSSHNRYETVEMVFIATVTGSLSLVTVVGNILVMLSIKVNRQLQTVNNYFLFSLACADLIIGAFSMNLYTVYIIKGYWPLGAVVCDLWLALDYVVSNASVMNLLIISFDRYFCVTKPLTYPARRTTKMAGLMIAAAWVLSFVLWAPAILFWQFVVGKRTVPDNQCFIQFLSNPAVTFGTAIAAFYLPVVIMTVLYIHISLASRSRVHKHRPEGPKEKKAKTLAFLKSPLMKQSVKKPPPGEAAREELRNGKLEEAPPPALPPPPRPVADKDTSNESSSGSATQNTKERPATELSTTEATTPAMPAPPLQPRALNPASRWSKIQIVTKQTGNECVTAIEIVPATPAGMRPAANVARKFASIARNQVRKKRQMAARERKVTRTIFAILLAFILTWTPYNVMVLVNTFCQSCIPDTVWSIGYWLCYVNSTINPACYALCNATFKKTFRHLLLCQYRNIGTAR

[2] = target: Sigma intracellular receptor 2 (Homo sapiens, UniProt Q5BJF2); assay: Inhibition of sigma 2 receptor (unknown origin); settings: concentration not given here
Sequence of Sigma intracellular receptor 2 (Q5BJF2 whole entry): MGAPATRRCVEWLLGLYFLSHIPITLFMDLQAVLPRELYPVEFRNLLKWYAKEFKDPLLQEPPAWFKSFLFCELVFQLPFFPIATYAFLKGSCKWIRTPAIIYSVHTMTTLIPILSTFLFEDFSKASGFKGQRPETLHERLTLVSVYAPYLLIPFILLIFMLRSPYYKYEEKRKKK

[3] = target: Histamine H2 receptor (Homo sapiens) (UniProt P25021); assay: Inhibition of H2 receptor (unknown origin); settings: concentration not given here
Sequence of Histamine H2 receptor (Homo sapiens) (P25021 whole entry): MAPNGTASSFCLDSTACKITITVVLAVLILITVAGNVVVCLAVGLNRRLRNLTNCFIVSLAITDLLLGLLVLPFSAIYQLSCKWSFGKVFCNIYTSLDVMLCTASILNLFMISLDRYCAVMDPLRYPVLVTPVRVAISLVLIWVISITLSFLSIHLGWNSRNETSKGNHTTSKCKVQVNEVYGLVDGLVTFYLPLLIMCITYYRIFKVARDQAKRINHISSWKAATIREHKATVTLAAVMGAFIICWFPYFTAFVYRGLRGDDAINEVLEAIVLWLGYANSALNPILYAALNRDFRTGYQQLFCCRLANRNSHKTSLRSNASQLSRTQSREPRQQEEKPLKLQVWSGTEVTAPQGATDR

[4] = target: Muscarinic acetylcholine receptor M3 (Homo sapiens) (UniProt P20309); assay: Inhibition of M3 receptor (unknown origin); settings: concentration not given here
Sequence of Muscarinic acetylcholine receptor M3 (Homo sapiens) (P20309 whole entry, looked up): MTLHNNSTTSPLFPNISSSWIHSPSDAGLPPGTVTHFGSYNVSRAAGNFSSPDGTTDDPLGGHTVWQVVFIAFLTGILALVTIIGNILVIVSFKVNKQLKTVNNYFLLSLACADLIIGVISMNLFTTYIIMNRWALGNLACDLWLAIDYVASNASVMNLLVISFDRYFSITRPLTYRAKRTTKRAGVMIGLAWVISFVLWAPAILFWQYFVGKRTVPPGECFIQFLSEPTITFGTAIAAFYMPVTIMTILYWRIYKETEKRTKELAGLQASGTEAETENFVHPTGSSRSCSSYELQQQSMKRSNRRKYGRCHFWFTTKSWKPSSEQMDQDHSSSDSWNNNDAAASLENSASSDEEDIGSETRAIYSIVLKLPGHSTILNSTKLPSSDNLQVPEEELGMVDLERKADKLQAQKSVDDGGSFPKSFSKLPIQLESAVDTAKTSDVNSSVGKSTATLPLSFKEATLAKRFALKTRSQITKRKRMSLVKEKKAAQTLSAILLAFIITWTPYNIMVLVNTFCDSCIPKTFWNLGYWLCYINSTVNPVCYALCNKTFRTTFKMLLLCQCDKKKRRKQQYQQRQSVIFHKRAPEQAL

[5] = target: Beta-3 adrenergic receptor (Homo sapiens) (UniProt P13945); assay: Inhibition of beta 3 receptor (unknown origin); settings: concentration not given here
Sequence of Beta-3 adrenergic receptor (Homo sapiens) (P13945 whole entry, looked up): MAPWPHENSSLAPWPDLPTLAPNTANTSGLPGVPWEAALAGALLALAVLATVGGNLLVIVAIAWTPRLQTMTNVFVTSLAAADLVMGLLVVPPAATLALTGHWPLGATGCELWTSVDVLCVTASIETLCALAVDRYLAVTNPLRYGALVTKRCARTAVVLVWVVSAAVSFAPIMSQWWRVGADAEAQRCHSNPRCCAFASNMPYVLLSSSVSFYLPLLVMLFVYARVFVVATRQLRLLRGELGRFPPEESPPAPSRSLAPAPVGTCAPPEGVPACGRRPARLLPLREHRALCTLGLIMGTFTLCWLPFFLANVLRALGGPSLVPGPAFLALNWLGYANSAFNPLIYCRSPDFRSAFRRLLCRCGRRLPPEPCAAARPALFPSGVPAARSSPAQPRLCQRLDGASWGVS

[6] = target: Delta-type opioid receptor (Homo sapiens) (UniProt P41143); assay: Inhibition of DOR receptor (unknown origin); settings: concentration not given here
Sequence of Delta-type opioid receptor (Homo sapiens) (P41143 whole entry): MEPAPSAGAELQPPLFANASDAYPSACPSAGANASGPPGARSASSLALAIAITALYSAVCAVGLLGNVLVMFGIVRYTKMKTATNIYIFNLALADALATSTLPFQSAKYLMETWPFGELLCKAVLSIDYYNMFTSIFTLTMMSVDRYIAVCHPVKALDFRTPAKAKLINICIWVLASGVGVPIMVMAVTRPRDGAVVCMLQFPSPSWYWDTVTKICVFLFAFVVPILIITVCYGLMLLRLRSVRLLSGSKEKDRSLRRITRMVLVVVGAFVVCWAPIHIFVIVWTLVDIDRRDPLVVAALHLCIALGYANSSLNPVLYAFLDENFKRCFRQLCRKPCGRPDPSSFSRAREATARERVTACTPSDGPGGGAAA

[7] = target: T2, 5-hydroxytryptamine receptor 2C (Homo sapiens, UniProt P28335); assay: Binding affinity to 5HT2C receptor (unknown origin) assessed as inhibition constant
T2 sequence (P28335 whole entry): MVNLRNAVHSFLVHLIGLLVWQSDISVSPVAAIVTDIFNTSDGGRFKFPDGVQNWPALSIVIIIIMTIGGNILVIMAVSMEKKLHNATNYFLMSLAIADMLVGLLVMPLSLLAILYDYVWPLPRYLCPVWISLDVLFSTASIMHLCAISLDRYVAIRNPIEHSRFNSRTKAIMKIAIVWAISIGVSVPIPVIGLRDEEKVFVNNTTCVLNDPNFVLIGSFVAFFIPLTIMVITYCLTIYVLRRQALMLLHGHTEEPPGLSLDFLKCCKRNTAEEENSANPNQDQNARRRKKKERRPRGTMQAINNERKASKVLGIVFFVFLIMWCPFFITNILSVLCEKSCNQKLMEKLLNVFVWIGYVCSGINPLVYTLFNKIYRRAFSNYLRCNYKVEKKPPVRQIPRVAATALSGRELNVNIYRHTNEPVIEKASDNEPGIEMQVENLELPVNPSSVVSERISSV

[8] = target: GABA-A receptor; anion channel (Homo sapiens) (UniProt P14867+P47870+P18507+P28472+P48169+Q99928+Q9UN88+P34903+O00591+O14764+Q8N1C3+P18505+P78334+P47869+P31644+Q16445); assay: Inhibition of GABA-A receptor (unknown origin); type: protein-complex assay; settings: concentration not given here
[9] = target: T3, 5-hydroxytryptamine receptor 1A (Homo sapiens, UniProt P08908); assay: Binding affinity to 5HT1A receptor (unknown origin) assessed as inhibition constant
T3 sequence (P08908 whole entry): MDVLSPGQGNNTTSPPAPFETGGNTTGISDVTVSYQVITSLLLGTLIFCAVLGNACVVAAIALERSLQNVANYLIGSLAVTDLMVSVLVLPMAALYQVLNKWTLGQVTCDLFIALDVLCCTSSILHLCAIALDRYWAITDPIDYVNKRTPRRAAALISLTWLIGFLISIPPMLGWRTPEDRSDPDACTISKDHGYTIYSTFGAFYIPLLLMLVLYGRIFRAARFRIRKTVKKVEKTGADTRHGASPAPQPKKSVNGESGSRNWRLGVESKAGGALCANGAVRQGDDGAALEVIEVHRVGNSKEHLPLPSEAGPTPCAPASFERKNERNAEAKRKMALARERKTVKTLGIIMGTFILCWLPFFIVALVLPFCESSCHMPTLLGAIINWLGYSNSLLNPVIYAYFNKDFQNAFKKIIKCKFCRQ

[10] = target: 5-hydroxytryptamine receptor 5A (Homo sapiens, UniProt P47898); assay: Binding affinity to 5HT5A receptor (unknown origin) assessed as inhibition constant
Sequence of 5-hydroxytryptamine receptor 5A (P47898 whole entry): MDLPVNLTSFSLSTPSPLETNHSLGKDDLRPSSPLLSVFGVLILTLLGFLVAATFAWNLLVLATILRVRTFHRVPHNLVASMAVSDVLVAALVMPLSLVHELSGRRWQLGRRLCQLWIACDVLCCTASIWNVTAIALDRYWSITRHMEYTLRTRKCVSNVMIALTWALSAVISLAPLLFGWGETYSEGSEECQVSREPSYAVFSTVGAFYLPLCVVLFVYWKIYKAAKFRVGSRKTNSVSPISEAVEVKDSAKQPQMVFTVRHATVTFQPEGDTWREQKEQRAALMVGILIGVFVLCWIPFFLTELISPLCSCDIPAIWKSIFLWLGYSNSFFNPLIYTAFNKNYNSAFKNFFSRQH

[11] = target: 5-hydroxytryptamine receptor 2A (Homo sapiens, UniProt P28223); assay: Agonist activity at human 5HT2A receptor stably expressed in Flp-In-T-REx-293 cells assessed as maximal Gq-mediated calcium flux by Fluo-4 direct dye based FLIPR Tetra assay relative to control; type: functional, cell-based; settings: filed as agonist
Sequence of 5-hydroxytryptamine receptor 2A (P28223 whole entry): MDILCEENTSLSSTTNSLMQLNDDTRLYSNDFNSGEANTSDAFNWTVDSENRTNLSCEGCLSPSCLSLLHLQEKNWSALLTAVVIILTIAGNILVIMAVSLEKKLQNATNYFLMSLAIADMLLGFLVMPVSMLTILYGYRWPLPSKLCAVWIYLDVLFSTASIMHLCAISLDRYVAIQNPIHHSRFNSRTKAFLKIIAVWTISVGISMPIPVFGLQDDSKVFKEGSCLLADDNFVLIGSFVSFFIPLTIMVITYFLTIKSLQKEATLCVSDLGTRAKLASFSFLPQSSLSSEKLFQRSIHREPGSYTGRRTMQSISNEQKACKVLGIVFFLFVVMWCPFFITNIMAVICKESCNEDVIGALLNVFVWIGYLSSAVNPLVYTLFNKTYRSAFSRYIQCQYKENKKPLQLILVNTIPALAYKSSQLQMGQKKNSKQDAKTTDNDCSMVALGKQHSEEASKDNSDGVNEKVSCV

[12] = target: T2, 5-hydroxytryptamine receptor 2C; assay: Agonist activity at human 5HT2C receptor stably expressed in Flp-In-T-REx-293 cells assessed as increase in Gq-mediated calcium flux by Fluo-4 direct dye based FLIPR Tetra assay; type: functional, cell-based; settings: read-out: EC50
[13] = target: T4, 5-hydroxytryptamine receptor 2C (Homo sapiens) (UniProt P28335); assay: Agonist activity at human 5HT2C receptor stably expressed in Flp-In-T-REx-293 cells assessed as maximal Gq-mediated calcium flux by Fluo-4 direct dye based FLIPR Tetra assay relative to control; type: functional, cell-based; settings: filed as agonist
T4 sequence (whole entry): T2 sequence (P28335 whole entry)

[14] = target: Translocator protein (Homo sapiens) (UniProt P30536); assay: Inhibition of peripheral benzodiazepine receptor (unknown origin); settings: concentration not given here
Sequence of Translocator protein (Homo sapiens) (P30536 whole entry): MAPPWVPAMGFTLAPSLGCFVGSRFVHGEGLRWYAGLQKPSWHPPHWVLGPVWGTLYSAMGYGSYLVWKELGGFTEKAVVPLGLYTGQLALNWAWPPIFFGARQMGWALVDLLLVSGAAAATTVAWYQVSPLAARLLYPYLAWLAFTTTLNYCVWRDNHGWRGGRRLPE

[15] = target: T5, Alpha-2C adrenergic receptor (Homo sapiens) (UniProt P18825); assay: Inhibition of alpha2c (unknown origin); settings: concentration not given here
T5 sequence (whole entry): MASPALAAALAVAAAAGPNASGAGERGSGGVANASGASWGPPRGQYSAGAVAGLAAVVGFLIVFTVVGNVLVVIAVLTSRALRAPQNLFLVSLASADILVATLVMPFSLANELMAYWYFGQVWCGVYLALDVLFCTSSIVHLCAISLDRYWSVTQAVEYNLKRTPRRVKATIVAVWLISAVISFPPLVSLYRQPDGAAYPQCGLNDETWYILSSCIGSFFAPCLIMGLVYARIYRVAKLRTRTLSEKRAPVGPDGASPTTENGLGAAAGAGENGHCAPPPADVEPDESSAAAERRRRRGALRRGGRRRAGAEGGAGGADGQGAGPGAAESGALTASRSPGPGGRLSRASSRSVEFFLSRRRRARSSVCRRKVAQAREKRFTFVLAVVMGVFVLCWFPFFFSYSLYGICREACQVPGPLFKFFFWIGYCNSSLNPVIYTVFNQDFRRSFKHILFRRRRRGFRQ

[16] = target: Histamine H1 receptor (Homo sapiens) (UniProt P35367); assay: Inhibition of H1 receptor (unknown origin); settings: concentration not given here
Sequence of Histamine H1 receptor (Homo sapiens) (P35367 whole entry): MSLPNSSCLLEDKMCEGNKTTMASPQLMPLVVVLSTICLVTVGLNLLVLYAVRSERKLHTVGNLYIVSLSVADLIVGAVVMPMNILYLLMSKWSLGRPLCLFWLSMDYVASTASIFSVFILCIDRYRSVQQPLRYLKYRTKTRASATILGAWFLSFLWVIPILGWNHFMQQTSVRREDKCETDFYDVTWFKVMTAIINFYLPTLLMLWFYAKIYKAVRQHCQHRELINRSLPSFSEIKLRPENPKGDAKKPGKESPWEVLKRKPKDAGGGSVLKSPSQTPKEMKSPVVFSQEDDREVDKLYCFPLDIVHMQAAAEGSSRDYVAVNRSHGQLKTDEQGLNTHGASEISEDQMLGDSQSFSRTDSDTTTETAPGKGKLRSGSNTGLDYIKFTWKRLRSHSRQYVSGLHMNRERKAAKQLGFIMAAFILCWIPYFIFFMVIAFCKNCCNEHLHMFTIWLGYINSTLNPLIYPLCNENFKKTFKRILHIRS

[17] = target: Sodium-dependent dopamine transporter (Homo sapiens) (UniProt Q01959); assay: Inhibition of DAT receptor (unknown origin); settings: concentration not given here
Sequence of Sodium-dependent dopamine transporter (Homo sapiens) (Q01959 whole entry): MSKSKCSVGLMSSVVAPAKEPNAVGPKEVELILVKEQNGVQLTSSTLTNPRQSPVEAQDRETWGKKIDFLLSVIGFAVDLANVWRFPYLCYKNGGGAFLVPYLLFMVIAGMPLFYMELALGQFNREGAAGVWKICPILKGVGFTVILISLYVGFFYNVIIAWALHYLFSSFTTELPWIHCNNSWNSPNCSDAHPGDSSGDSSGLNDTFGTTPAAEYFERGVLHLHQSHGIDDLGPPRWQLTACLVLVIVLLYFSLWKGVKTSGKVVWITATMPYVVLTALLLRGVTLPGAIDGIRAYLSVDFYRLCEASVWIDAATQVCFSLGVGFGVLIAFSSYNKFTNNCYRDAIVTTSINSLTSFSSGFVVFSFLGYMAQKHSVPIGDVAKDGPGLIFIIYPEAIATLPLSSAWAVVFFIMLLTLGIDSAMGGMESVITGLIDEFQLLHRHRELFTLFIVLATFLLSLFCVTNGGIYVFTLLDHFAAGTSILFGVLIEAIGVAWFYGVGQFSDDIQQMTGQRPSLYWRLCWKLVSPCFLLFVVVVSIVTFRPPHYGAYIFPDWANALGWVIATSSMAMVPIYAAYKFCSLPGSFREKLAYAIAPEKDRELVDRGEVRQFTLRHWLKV

[18] = target: 5-hydroxytryptamine receptor 6 (Homo sapiens, UniProt P50406); assay: Binding affinity to 5HT6 receptor (unknown origin) assessed as inhibition constant
Sequence of 5-hydroxytryptamine receptor 6 (P50406 whole entry): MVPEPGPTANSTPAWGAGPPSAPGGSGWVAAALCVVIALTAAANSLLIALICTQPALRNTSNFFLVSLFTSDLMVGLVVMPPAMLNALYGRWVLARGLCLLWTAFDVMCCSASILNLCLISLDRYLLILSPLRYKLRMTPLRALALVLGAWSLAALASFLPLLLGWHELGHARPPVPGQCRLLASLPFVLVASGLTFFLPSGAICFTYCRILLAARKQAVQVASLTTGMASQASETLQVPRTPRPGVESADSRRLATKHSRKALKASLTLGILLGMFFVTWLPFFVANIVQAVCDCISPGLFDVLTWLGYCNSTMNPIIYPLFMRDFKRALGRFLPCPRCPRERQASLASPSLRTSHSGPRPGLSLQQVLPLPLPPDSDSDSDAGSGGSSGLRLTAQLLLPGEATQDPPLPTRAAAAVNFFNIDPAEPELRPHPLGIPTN

Structure (SMILES): COc1ccc(C2NCCc3c2[nH]c2ccc(F)cc32)c(O)c1 (stereo not given)
- inhibition [1]: < 50%
- inhibition [2]: < 50%
- inhibition [3]: < 50%
- inhibition [4]: < 50%
- inhibition [5]: < 50%
- inhibition [6]: < 50%
- Ki [7]: 49.8 nM
- inhibition [8]: < 50%
- Ki [9]: 94.4 nM
- Ki [10]: 229 nM
- Emax [11]: 102%
- EC50 [12]: 1.02 nM
- Emax [13]: 105%
- inhibition [14]: < 50%
- inhibition [15]: < 50%
- inhibition [16]: < 50%
- inhibition [17]: < 50%
- Ki [18]: 68.8 nM

Structure (SMILES): COc1cc(OC)c(C2NCCc3c2[nH]c2ccc(Cl)cc32)cc1OC (stereo not given)
- inhibition [1]: < 50%
- inhibition [2]: < 50%
- inhibition [3]: < 50%
- inhibition [4]: < 50%
- inhibition [5]: < 50%
- inhibition [6]: < 50%
- Ki [7]: 25.2 nM
- inhibition [8]: < 50%
- Ki [9]: 22.4 nM
- Ki [10]: 69.5 nM
- Emax [11]: 98.4%
- EC50 [12]: 0.5 nM
- Emax [13]: 97.5%
- inhibition [14]: < 50%
- inhibition [15]: < 50%
- inhibition [16]: < 50%
- inhibition [17]: < 50%
- Ki [18]: 29 nM

Structure (SMILES): COc1ccc(C2NCCc3c2[nH]c2ccc(Cl)cc32)c(O)c1 (stereo not given)
- inhibition [1]: < 50%
- inhibition [2]: < 50%
- inhibition [3]: < 50%
- inhibition [4]: < 50%
- inhibition [5]: < 50%
- inhibition [6]: < 50%
- Ki [7]: 35.9 nM
- inhibition [8]: < 50%
- Ki [9]: 79.9 nM
- Ki [10]: 177 nM
- Emax [11]: 100%
- EC50 [12]: 8.9 nM
- Emax [13]: 97.2%
- inhibition [14]: < 50%
- inhibition [15]: < 50%
- inhibition [16]: < 50%
- inhibition [17]: < 50%
- Ki [18]: 47.7 nM

Structure (SMILES): COc1cc(OC)c(C2NCCc3c2[nH]c2ccc(F)cc32)cc1OC (stereo not given)
- inhibition [1]: < 50%
- inhibition [3]: < 50%
- inhibition [4]: < 50%
- inhibition [5]: < 50%
- inhibition [6]: < 50%
- Ki [7]: 671 nM
- inhibition [8]: < 50%
- Ki [9]: 1370 nM
- Ki [10]: 2840 nM
- Emax [11]: 97.1%
- EC50 [12]: 20 nM
- Emax [13]: 111%
- inhibition [14]: < 50%
- inhibition [16]: < 50%
- inhibition [17]: < 50%
- Ki [18]: 530 nM

— ChEMBL document CHEMBL5131517 (ACS Med Chem Lett, 2022)
